Test results published in US20100197687A1, “Indoles Useful in the Treatment of Inflammation” (priority 2005, published 2010).
Where a name gives a salt, the structure may show the parent alone.

Target: T1, mPGES-1 (Homo sapiens, UniProt O14684)
T1 construct: made in house; host or cells: E. coli
T1 sequence (O14684 1-152): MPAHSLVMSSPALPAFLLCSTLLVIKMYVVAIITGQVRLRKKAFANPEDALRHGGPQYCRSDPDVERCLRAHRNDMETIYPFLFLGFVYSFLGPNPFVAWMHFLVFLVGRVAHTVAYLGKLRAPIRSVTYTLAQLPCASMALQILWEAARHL
Assay: mPGES-1 biological test (conversion of PGH2 to PGE2, HPLC read-out)
Type: biochemical
Details: mPGES-1 expressed in E. coli, membrane fraction; 25 min pre-incubation with inhibitor, 60 s with PGH2, room temperature; read-out: IC50 (inhibition of mPGES-1)
Method: In the assay mPGES-1 catalyses the reaction where the substrate PGH2 is converted to PGE2. mPGES-1 is expressed in E. coli and the membrane fraction is dissolved in 20 mM NaPi-buffer pH 8.0 and stored at −80° C. In the assay mPGES-1 is dissolved in 0.1M KPi-buffer pH 7.35 with 2.5 mM glutathione. The stop solution consists of H2O/MeCN (7/3), containing FeCl2 (25 mM) and HCl (0.15 M). The assay is performed at room temperature in 96-well plates. Analysis of the amount of PGE2 is performed with reversed phase HPLC (Waters 2795 equipped with a 3.9×150 mm C18 column). The mobile phase consists of H2O/MeCN (7/3), containing TFA (0.056%), and absorbance is measured at 195 nm with a Waters 2487 UV-detector.
The following is added chronologically to each well: • 1. 100 μL mPGES-1 in KPi-buffer with glutathione. Total protein concentration: 0.02 mg/mL. • 2. 1 μL inhibitor in DMSO. Incubation of the plate at room temperature for 25 minutes. • 3. 4 μL of a 0.25 mM PGH2 solution. Incubation of the plate at room temperature for 60 seconds. • 4. 100 μL stop solution. • 180 μL per sample is analyzed with HPLC.

| SMILES | IC50 [nM] |
| --- | --- |
| CC(C)(C)c1ccc(-c2ccc3c(c2)cc(CCC(=O)O)n3-c2ccc(OC3CCCC3)cc2)cc1 [Example 29, 3-[5-(4-tert-Butylphenyl)-1-(4-cyclopentyloxyphenyl)indol-2-yl]-propionic acid] | 780 |
| CC(C)Oc1ccc(-n2c(C(=O)O)c(CN3CCOCC3)c3cc(-c4ccc(C(C)(C)C)cc4)ccc32)cc1 [Example 2, 5-(4-tert-Butylphenyl)-1-(4-isopropoxyphenyl)-3-morpholin-4-ylmethylindole-2-carboxylic acid] | 2600 |
| CC(C)Oc1ccc(-n2c(C(=O)O)c(CNC(CO)CO)c3cc(-c4ccc(C(F)(F)F)cn4)ccc32)cc1 [Example 9, 3-[(1,3-dihydroxypropan-2-ylamino)methyl]-1-(4-isopropoxyphenyl)-5-(5-trifluoromethylpyridin-2-yl)indole-2-carboxylic acid dihydrochloride] | 2100 |
| CC(C)Oc1ccc(-n2c(CC(=O)O)cc3cc(Oc4ccc(Cl)cc4)ccc32)cc1 [Example 32, [5-(4-Chlorophenoxy)-1-(4-isopropoxyphenyl)indol-2-yl]acetic acid] | 3200 |
| CC(C)Oc1ccc(-n2c(C(=O)O)c(CN(C)C)c3cc(-c4ccc(C(C)(C)C)cc4)ccc32)cc1 [Example 8, 5-(4-tert-Butylphenyl)-3-dimethylaminomethyl-1-(4-isopropoxyphenyl)indole-2-carboxylic acid] | 560 |
